Patent publication US10053452B2 (AMGEN INC., priority 2013, dated 2018)

Assays:
[1] = test system: stage IV solid endometrial cancerous tumor; assay: Human Ph I clinical trial, tumor response: endometrial tumor; settings: CT
Text: FIGS. 31A and 31B are measurements of the same endometrial solid tumor depicted in FIGS. 30A and 30B, but with its size shown as measured alone the short axis by CT and calculated using RECIST 1.1.

[2] = Dynamic vapor sorption (DVS) moisture uptake; format: physicochemical
Procedure: Moisture uptake of a given AMG 900 salt crystalline form was assessed by dynamic vapor sorption (DVS). Moisture sorption/desorption data was collected on a Surface Measurement System (SMS) DVS-Advantage vapor sorption analyzer (SMS, Alperton, Middlesex, UK). The sorption and desorption data was collected over a range of 0 to 95% relative humidity (RH) at 25° C. with 5-10% RH intervals under a nitrogen purge. Equilibrium criteria used for analysis were less than 0.002% weight change in 5 minutes, with a maximum equilibrium time of 120 minutes if the weight criterion was not met.

[3] = Solid photostability (1×ICH dose for UV and visible light); format: physicochemical; settings: 1×ICH dose for UV and visible light
Procedure: For photostability studies, enough sample was placed in a open 100 mL glass crystallization dish and exposed to 1×ICH dose for UV and visible light. Samples were weighed out for HPLC, XRPD, TGA and DSC analysis as abve after the exposure to light.

[4] = Solid stability studies (storage at set temperature/humidity; HPLC, XRPD, TGA, DSC); format: physicochemical; settings: for Assay (% w/w): acceptance 97.0-103.0; for physical and chemical stability of unmilled drug substance: up to 3 months, 30° C./65% RH and 40° C./75% RH
Procedure: Stability data was obtained for up to 3 months storage at the long term storage condition of 30° C./65% RH and at the accelerated condition of 40° C./75% RH for unmilled drug substance.
Another 10 mg was weighed into a 4 mL glass vial and placed under the same conditions. At each time point one flask was removed from the chamber or over, diluted with methanol to the 100 mL mark and analyzed by HPLC for purity and label claim % compared to the standard. Also at each time point one vial was removed from the chamber and the contents were analyzed by XRPD, TGA and/or DSC.

[5] = test system: solid tumor; assay: Human Ph I clinical trial: active dose and MTD/DLT; settings: oral
[6] = test system: solid ovarian cancerous tumor; assay: Human Ph I clinical trial, tumor response: ovarian tumor
Procedure: Specifically, FIG. 32A illustrates diametric measurements along the short axis of the tumor dosed with 30 mg once daily over a period of two (2) cycles, ie., 4 week (28 days).

[7] = Solid stability studies (storage at set temperature/humidity; HPLC, XRPD, TGA, DSC); format: physicochemical; settings: for Total Impurities (%): acceptance < or = 2.0; for Assay (% w/w): acceptance 97.0-103.0; for Description: acceptance: White to brown powder
[8] = Solubility studies in aqueous media, excipients or solvents (18-24 hrs, HPLC; solid form by XRPD); format: physicochemical; settings: for solubility at 24 h: thermodynamic from solid
Procedure: (§1) An excess of solid material was stirred at 25° C. or 55° C. for 18-24 hrs in aqueous media, excipients or solvents as noted. At the appropriate time point, an aliquot of the sample was centrifuged. The supernatant was filtered through a PTFE syringe filter and analyzed by HPLC versus a standard curve. The solid was then analyzed by XRPD for identification of the form.

[9] = Relationship / interconversion between bismesylate crystalline forms; format: physicochemical
Text: AMG 900 bismesylate salt crystalline From A was identified as a dihydrate; AMG 900 bismesylate salt crystalline From B was identified as a dihydrate; AMG 900 bismesylate salt crystalline From C was identified as a monohydrate; and AMG 900 bismesylate salt crystalline From D was identified as a monohydrate. […].

[10] = Dog pK study; format: in vivo
Text: To this end, a various crystalline forms of different pharmaceutically acceptable salts of AMG 900 were investigated and made.

[11] = test system: p-Histone H3; assay: p-Histone H3 in HeLa cells; settings: Homo sapiens, read-out: IC50 p-Histone H3
[12] = test system: p-Histone H3; assay: p-Histone H3 in Jurkat cells; settings: Homo sapiens, read-out: IC50 for p-Histone H3
[13] = Solubility of salt/crystal forms in 0.01N HCl over 24 hrs; format: physicochemical; settings: slurry
Procedure: as §1

[14] = 30° C./65% RH, Initial Period Time 0
[15] = platinum-sensitive ovarian cancer patient, 16 mg, then 8 mg (cycles 4-15), 12 mg (cycle 16) once daily, end of cycle 16
[16] = up to 12 weeks, 25° C./60% RH, 40° C./60% RH, 40° C./75% RH and 60° C./Amb

## Cc1csc(-c2nnc(Nc3ccc(Oc4ncccc4-c4ccnc(N)n4)cc3)c3ccccc23)c1 [AMG 900 bismesylate dihydrate form B, N-(4-((3-(2-amino-4-pyrimidinyl)-2-pyridinyl)oxy)phenyl)-4-(4-methyl-2-thienyl)-1-phthalazinamine]
[1]; endometrial tumor patient, 30 mg+GCSF once daily, 4 days on/10 days off, week 24, RECIST 1.0
  decrease of long axis diameter versus base line: approximately 50%
[2]
  hygroscopicity: non-hygroscopic
[2]; above 10% RH
  stability to humidity changes (DVS isotherm): stable to humidity changes
[3]
  chemical and physical stability to light: chemically and physically stable
[4]; 30° C./65% RH, 3 months
  Assay (% w/w): 99.2 % w/w
[4]; 30° C./65% RH, 3 months, acceptance: White to brown powder
  Description: conforms
[4]; [14]
  Assay (% w/w): 98.1 % w/w
[4]; 30° C./65% RH, Initial Period Time 0, acceptance < or = 2.0
  Total Impurities (%): 0.35%
[4]; 30° C./65% RH, Initial Period Time 0, acceptance < or = 500
  4-aminophenol content (ppm): <20 ppm
[4]; listed as AMG 900 bis-mesylate dihydrate drug substance
  physical and chemical stability of unmilled drug substance: remain within specifications
[4]; listed as AMG 900 bismesylate (dimethanesulfonate) salt crystalline Form B
  physical and chemical stability of unmilled drug substance: stable
[5]
  dose at which MTD's and DLT's were observed: greater than 8 mg
[5]; on-off schedule, ovarian and endometrial tumors
  once daily dose at which anti cancer activity was observed: ≥ 8 mg
[6]; [15]
  decrease in CA-125: 45%
  decrease in SLD (sum of long axis diameters) on CT: 16%
[6]; stage IV-B ovarian tumor patient, 30 mg once daily, 4 days on/10 days off, two cycles, week 4, RECIST 1.1
  reduction of short axis diameter versus base line: about 30%
[7]; 30° C./65% RH, 3 months
  Water content (%): 5.1%
  Total Impurities (%): 0.21%
[7]; 30° C./65% RH, 3 months, acceptance < or = 500
  4-aminophenol content (ppm): <20 ppm
[7]; 30° C./65% RH, 6 months
  Water content (%): 5.2%
  Assay (% w/w): 99.1 % w/w
  Total Impurities (%): 0.16%
  Description: conforms
[7]; 30° C./65% RH, 6 months, acceptance < or = 500
  4-aminophenol content (ppm): <20 ppm
[7]; 30° C./65% RH, 9 months
  Water content (%): 5.2%
  Assay (% w/w): 101.2 % w/w
  Total Impurities (%): 0.25%
  Description: conforms
[7]; 30° C./65% RH, 9 months, acceptance < or = 500
  4-aminophenol content (ppm): <20 ppm
[7]; 30° C./65% RH, 12 months
  Water content (%): 5.2%
  Assay (% w/w): 100.1 % w/w
  Total Impurities (%): 0.26%
  Description: conforms
[7]; 30° C./65% RH, 12 months, acceptance < or = 500
  4-aminophenol content (ppm): <20 ppm
[7]; 30° C./65% RH, 12 months, acceptance < or = 500, intermediate is 4-(2-(4-aminophenoxy)pyridin-3-yl)pyrimidin-2-amine
  Intermediate* content (ppm): 171 ppm
[7]; [14]
  Water content (%): 5.0%
  Description: conforms
[7]; [16]
  chemical stability (HPLC): no degradation detected
  physical stability (XRPD, TGA and DSC): physically stable
[8]; 24 hrs, all media except aqueous pH 7 and pH 12
  form stability after slurry in various aqueous media and solvents: remain unchanged (stable)
[8]; DMF, organic solvent or mixture
  solubility at 24 h: > 12000 µg/mL
[8]; THF, organic solvent or mixture
  solubility at 24 h: 12 µg/mL
[8]; acetone, organic solvent or mixture
  solubility at 24 h: 20 µg/mL
[8]; aqueous MSA, aqueous buffer, pH 0.5 MSA
  solubility at 24 h: 676 µg/mL
[8]; aqueous MSA, aqueous buffer, pH 1.0 MSA
  solubility at 24 h: > 7400 µg/mL
[8]; aqueous MSA, aqueous buffer, pH 1.5 MSA
  solubility at 24 h: 3400 µg/mL
[8]; aqueous MSA, aqueous buffer, pH 2.0 MSA
  solubility at 24 h: 1620 µg/mL
[8]; aqueous pH 7, 24 hrs
  form after slurry: converted to the free base form C hydrate
[8]; aqueous pH 12, 24 hrs
  form after slurry: converted to the free base form C hydrate
[8]; ethanol, organic solvent or mixture
  solubility at 24 h: > 12000 µg/mL
[8]; ethyl acetate, organic solvent or mixture
  solubility at 24 h: < 1 µg/mL
[8]; isopropyl alcohol, organic solvent or mixture
  solubility at 24 h: > 1 µg/mL
[8]; methanol, organic solvent or mixture
  solubility at 24 h: > 12000 µg/mL
[8]; methanol/water (9:1), organic solvent or mixture
  solubility at 24 h: > 12000 µg/mL
[8]; methyl ethyl ketone, organic solvent or mixture, Methyl ethyl keone
  solubility at 24 h: < 1 µg/mL
[8]; organic solvent or mixture, Acetonitrile (ACN)
  solubility at 24 h: 383 µg/mL
[8]; organic solvent or mixture, Dichloroethane (DCE)
  solubility at 24 h: 8 µg/mL
[8]; phosphate buffer, aqueous buffer, pH 7.0 Phosphate
  solubility at 24 h: < 1 µg/mL
[8]; phosphate buffer, aqueous buffer, pH 12.0 Phosphate
  solubility at 24 h: < 1 µg/mL
[9]
  thermodynamic stability of the crystalline form: thermodynamically stable form
[10]; dog
  exposure in a dog pK study: acceptable

## Cc1csc(-c2nnc(Nc3ccc(Oc4ncccc4-c4ccnc(N)n4)cc3)c3ccccc23)c1 [AMG 900, N-(4-((3-(2-amino-4-pyrimidinyl)-2-pyridinyl)oxy)phenyl)-4-(4-methyl-2-thienyl)-1-phthalazinamine]
[1]; same endometrial tumor, 30 mg once daily, week 16, eight cycles, RECIST 1.1
  reduction of short axis diameter: up to 40%
[11]; 1 h
  IC50: 59 nM
[11]
  IC50: 238 nM
[12]; 1 h
  IC50: 66 nM
[12]; 24 h
  IC50: 4 nM

## Cc1csc(-c2nnc(Nc3ccc(Oc4ncccc4-c4ccnc(N)n4)cc3)c3ccccc23)c1 [N-(4-((3-(2-amino-4-pyrimidinyl)-2-pyridinyl)oxy)phenyl)-4-(4-methyl-2-thienyl)-1-phthalazinamine]
[9]
  stability of the crystalline form: unstable
[9]; room temperature, normal humidity
  form conversion at room temperature: converts back to crystalline Form B

## Cc1csc(-c2nnc(Nc3ccc(Oc4ncccc4-c4ccnc(N)n4)cc3)c3ccccc23)c1 [bismesylate dihydrate form A, N-(4-((3-(2-amino-4-pyrimidinyl)-2-pyridinyl)oxy)phenyl)-4-(4-methyl-2-thienyl)-1-phthalazinamine]
[13]
  solubility versus AMG 900 free base crystalline form A: significant improvement in solubility
[9]; room temperature in a capped vial
  form conversion over time: converts to form B

## Cc1csc(-c2nnc(Nc3ccc(Oc4ncccc4-c4ccnc(N)n4)cc3)c3ccccc23)c1 [bismesylate monohydrate form C, N-(4-((3-(2-amino-4-pyrimidinyl)-2-pyridinyl)oxy)phenyl)-4-(4-methyl-2-thienyl)-1-phthalazinamine]
[9]; relative humidity at or greater than 50%
  form conversion with an increase in humidity: convert to the dihydrate form B

## Cc1csc(-c2nnc(Nc3ccc(Oc4ncccc4-c4ccnc(N)n4)cc3)c3ccccc23)c1 [free base crystalline form A of AMG 900, N-(4-((3-(2-amino-4-pyrimidinyl)-2-pyridinyl)oxy)phenyl)-4-(4-methyl-2-thienyl)-1-phthalazinamine]
[8]; water
  solubility in water: poorly soluble
[10]; dogs
  bioavailability in dogs: low
